Patent publication US9011853B2, “B7-H4 fusion proteins and methods of use thereof” (Amplimmune, Inc., priority 2009, dated 2015)
“And” between values parts separate entries of the source, which are not always exact repeats. Identical values can stand only once.

Tested on: serum levels of 58 analytes
Assay: Serum biomarker analysis, quantitative immunoassay multi-analyte profiling (Rules-Based Medicine RodentMAP v2.9), AA#80
Type: in vivo, mouse
Details: serum, listed as Human LgG1 Control
Method: In AA#80, serum samples were collected on Day 27, Day 34, Day 41 and Day 55 via the submandibular vein. Approximately 200 μL of blood per mouse was collected in Microtainer® serum separator tubes. Serum was removed following centrifugation and stored at <−65° C. until analysis.
Selected serum samples were sent to Rules-Based Medicine (Austin, Tex.) for quantitative immunoassay multi-analyte profiling of serum samples, with the goal of identifying biomarkers that could be used to monitor disease progression and response to B7-H4-Ig treatment. Day 27, Day 34, and Day 41 sera from the three representative mice in the B7-H4-Ig group (tag #3332, 3334, and 3338) and three representative mice in the Synagis® group (tag #3324, 3329, and 3330) were analyzed for levels of 58 analytes using the RodentMAP v2.9 Testing Service.
Data from the Rules-Based Medicine analysis was analyzed using Microsoft Excel and GraphPad Prism software. T-tests were performed to compare the levels of each analyte in the B7-H4-Ig versus Synagis® treated samples. No correction was made for multiple comparisons. Additionally, correlation coefficients were calculated for each analyte versus disease score.

## Synagis®: humanized monoclonal IgG antibody against the F protein of Respiratory Syncytial Virus; used as a human IgG1 isotype control [reference compound]
Day 41, LDD 21.85
  MDC (Macrophage-Derived Chemokine): 1410 pg/mL and 1430 pg/mL and 1150 pg/mL
Day 41, LDD 31.36
  MCP-3 (Monocyte Chemoattractant Protein-3): 235 pg/mL and 236 pg/mL and 242 pg/mL
Day 41, LDD 38.2
  VEGF (Vescular Endotheial Cell Growth Factor): 150 pg/mL and 171 pg/mL and 212 pg/mL
Day 41, LDD 40.28
  IP-10 (Inducible Protein-10): 54.7 pg/mL and 68.1 pg/mL and 66.8 pg/mL
Day 41, LDD 43.6
  LIF (Leukemia Infabitory Factor): 1650 pg/mL and 1580 pg/mL and 1470 pg/mL
Day 41, LDD 46.38
  MCP-5 (Monocyte Chemoattractant Protein-5): 45.6 pg/mL and 47.4 pg/mL and 52.8 pg/mL
Day 41, LDD 75.17
  SCF (Stem Cell Factor): 214 pg/mL and 249 pg/mL and 201 pg/mL
Day 41, LDD 77.65
  MIP-1beta (Macrophage Inflammatory Protein-1beta): 144 pg/mL and 115 pg/mL and 152 pg/mL
Day 41, LDD 85.48
  Lymphotactin: 178 pg/mL and 183 pg/mL and 194 pg/mL
Day 41, LDD 98.6
  VWF (Von Willebrand Factor): 131 ng/mL and 103 ng/mL and 111 ng/mL
Day 27, LDD 0.01795, individual mice
  M-CSF (Macrophage-Colony Stimulating Factor): 6.19 ng/mL and 6.6 ng/mL and 6.59 ng/mL
Day 27, LDD 0.0736, individual mice
  MIP-1gamma (Macrophage Inflammatory Protein-1gamma): 36.9 ng/mL and 37.1 ng/mL and 37.9 ng/mL
Day 27, LDD 0.13, individual mice
  OSM (Oncostatin M): <low> (2×) and 0.0103 ng/ml
Day 27, LDD 0.137, individual mice
  TNF-alpha (Tumor Necrosis Factor-alpha): 0.0965 ng/ml and <low> (2×)
Day 27, LDD 0.1739, individual mice
  KC/GROalpha (Melanoma Growth Stimulatory Activity Protein): 0.0804 ng/mL and 0.0795 ng/mL and 0.0633 ng/mL
Day 27, LDD 0.18, individual mice
  TEMP-1 (Tissue Inhibitor of Metalicproteinase Type-1): 1.38 ng/mL and 1.13 ng/mL and 1.23 ng/mL
Day 27, LDD 0.194, individual mice
  IL-5 (Interleukin-5): 0.438 ng/mL and 0.403 ng/mL and 0.264 ng/mL
Day 27, LDD 0.2255, individual mice
  MIP-1alpha (Macrophage Inflammatory Protein-1alpha): 3.03 ng/ml (2×) and 3.32 ng/ml
Day 27, LDD 0.309, individual mice
  IL-7 (Interleukin-7): 0.0593 ng/ml and <low> (2×)
Day 27, LDD 0.465, individual mice
  MIP-3beta (Macrophage Inflammatory Protein-3beta): 2.89 ng/mL and 3.05 ng/mL and 2.6 ng/mL
Day 27, LDD 0.5, individual mice
  RANTCS (Regulation Upon Activation Normal T-Cell Expressed and Secreted): 0.0826 pg/ml and <low> (2×)
Day 27, LDD 0.5175, individual mice
  Tissue Factor: 9.17 ng/ml (2×) and 10 ng/ml
Day 27, LDD 0.95, individual mice
  MPO (Myeloperoxidase): 216 ng/mL and 191 ng/mL and 265 ng/mL
Day 27, LDD 1.86, individual mice
  SGOT (Serum Glutamic-Oxaloacetic Transaminase): 84.6 µg/mL and 79.7 µg/mL and 75.4 µg/mL
Day 27, LDD 2.66, individual mice
  TPO (Thromboproletin): 38.9 ng/ml (2×) and 34.2 ng/ml
Day 27, LDD 5.4, individual mice
  SAP (Setrum Amtyloid P): 40.5 µg/mL and 34.2 µg/mL and 42.9 µg/mL
Day 27, LDD 7.174, individual mice
  MIP-2 (Macrophage Inflammatory Protein-2): 16.1 pg/mL and 22.2 pg/mL and 23.4 pg/mL
Day 27, LDD 10, individual mice
  MMP-9 (Matrix Metalloproteinase-9): 166 ng/mL and 177 ng/mL and 431 ng/mL
Day 27, LDD 13.852, individual mice
  IL-6 (Interleukin-6): 6.27 pg/ml (2×) and <low>
Day 27, LDD 16.924, individual mice
  MCP-1 (Monocyte Chemoattractant Protein-1): 74.4 pg/mL and 64.7 pg/mL and 70.5 pg/mL
Day 27, LDD 19, individual mice
  VCAM-1 (Vescular Cell Adhesion Molecule-1): 2260 ng/mL and 2080 ng/mL and 3160 ng/mL
Day 27, LDD 21.85, individual mice
  MDC (Macrophage-Derived Chemokine): 1250 pg/mL and 1310 pg/mL and 1070 pg/mL
Day 27, LDD 24, individual mice
  Myoglobin: 8.96 ng/mL and 11.4 ng/mL and 23.8 ng/mL
Day 27, LDD 31.36, individual mice
  MCP-3 (Monocyte Chemoattractant Protein-3): 168 pg/mL and 149 pg/mL and 138 pg/mL
Day 27, LDD 38.2, individual mice
  VEGF (Vescular Endotheial Cell Growth Factor): 144 pg/mL and 136 pg/mL and 139 pg/mL
Day 27, LDD 40.28, individual mice
  IP-10 (Inducible Protein-10): 45.3 pg/mL and 52 pg/mL and 55.5 pg/mL
Day 27, LDD 43.6, individual mice
  LIF (Leukemia Infabitory Factor): 1650 pg/mL and 1390 pg/mL and 1470 pg/mL
Day 27, LDD 46.38, individual mice
  MCP-5 (Monocyte Chemoattractant Protein-5): 35.7 pg/mL and 37.1 pg/mL and 35.5 pg/mL
Day 27, LDD 75.17, individual mice
  SCF (Stem Cell Factor): 226 pg/mL and 207 pg/mL and 220 pg/mL
Day 27, LDD 77.65, individual mice
  MIP-1beta (Macrophage Inflammatory Protein-1beta): 173 pg/ml (2×) and 150 pg/ml
Day 27, LDD 85.48, individual mice
  Lymphotactin: 198 pg/mL and 178 pg/mL and 189 pg/mL
Day 27, LDD 98.6, individual mice
  VWF (Von Willebrand Factor): 125 ng/mL and 131 ng/mL and 155 ng/mL
